Test results as given in patent US20160193216A1 (Nimbus Iris, Inc., priority 2012, published 2016).
Where a name gives a salt, the structure may show the parent alone.

These molecules were tested against T1, IRAK4 (Homo sapiens, UniProt Q9NWZ3) (assay: IRAK-4 activity inhibition assay (Caliper)). Conditions: 37 μM ATP, 3.5 nM IRAK4.
T1 sequence (Q9NWZ3 1-460): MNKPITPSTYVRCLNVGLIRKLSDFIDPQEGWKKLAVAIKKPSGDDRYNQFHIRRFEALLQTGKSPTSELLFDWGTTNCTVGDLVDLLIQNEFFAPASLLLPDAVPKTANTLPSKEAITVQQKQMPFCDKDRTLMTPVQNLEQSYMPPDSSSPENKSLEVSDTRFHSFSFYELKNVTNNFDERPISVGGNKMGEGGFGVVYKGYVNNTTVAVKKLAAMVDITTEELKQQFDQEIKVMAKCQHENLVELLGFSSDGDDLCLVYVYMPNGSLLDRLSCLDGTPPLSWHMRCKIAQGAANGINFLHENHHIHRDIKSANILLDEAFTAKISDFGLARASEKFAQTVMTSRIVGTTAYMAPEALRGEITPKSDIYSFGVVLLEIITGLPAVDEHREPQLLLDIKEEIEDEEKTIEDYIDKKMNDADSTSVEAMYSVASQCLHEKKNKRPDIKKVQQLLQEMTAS
Type: biochemical

SMILES	IC50 [µM]
CC(=O)N1CCc2sc3ncnc(O[C@H]4CC[C@H](N)CC4)c3c2C1 [Compound I-197, 1-[3-[(4-aminocyclohexyl)oxy]-8-thia-4,6, 12-triazatricyclo[7.4.0.0[2,7]]trideca-1(9),2,4,6-tetraen-12-yl]ethan-1-one]	5 to 20
NC(=O)C[C@H]1CCc2sc3ncnc(OCC4CCNCC4)c3c21 [Compound I-143, 2-[(3R)-12-(piperidin-4-ylmethoxy)-7-thia-9,11-diazatricyclo[6.4.0.0[2,6]]dodeca-1(12),2(6),8,10-tetraen-3-yl]acetamide]	5 to 20
CN(C)[C@]1(C)CC[C@@H](Oc2ncnc3sc4c(c23)[C@@H](CC(N)=O)CC4)CC1 [Compound I-155, 2-[(3R)-12-[[4-(dimethylamino)-4-methylcyclohexyl]oxy]-7-thia-9,11-diazatricyclo[6.4.0.0[2,6]]dodeca-1(8),2(6),9,11-tetraen-3-yl]acetamide]	< 5
CN(CC(=O)N1CCCC1)[C@H]1CC[C@H](Nc2ncnc3sc4c(c23)[C@@H](CCO)CC4)CC1 [Compound I-116, 2-(((1R,4r)-4-(((R)-5-(2-hydroxyethyl)-6,7-dihydro-5H-cyclopenta[4,5]thieno[2,3-d]pyrimidin-4-yl)amino)cyclohexyl)(methyl)amino)-1-(pyrrolidin-1-yl)ethanone]	< 5
CN(CCO)C(=O)CC1CCc2sc3ncnc(N[C@H]4CC[C@H](N(C)C)CC4)c3c21 (stereo partly drawn) [Compound I-30, 2-(12-[[4-(dimethylamino)cyclohexyl]amino]-7-thia-9,11-diazatricyclo[6.4.0.0̂[2,6]]dodeca-1(8),2(6),9,11-tetraen-3-yl)-N-(2-hydroxyethyl)-N-methylacetamide]	20 to 50
NC(=O)[C@H](O)C[C@H]1CCc2sc3ncnc(O[C@H]4CC[C@H](N)CC4)c3c21 [Compound I-138, (R)-3-((R)-4-(((1 r,4R)-4-aminocyclohexyl)oxy)-6,7-dihydro-5H-cyclopenta[4,5]thieno[2,3-d]pyrimidin-5-yl)-2-hydroxypropanamide]	< 5
CN(C)[C@H]1CC[C@H](Oc2ncnc3sc4c(c23)[C@@H](CC(=O)NCC(N)=O)CC4)CC1 [Compound I-58, N-(2-amino-2-oxoethyl)-2-((R)-4-(((1r,4R)-4-(dimethylamino)cyclohexyl)oxy)-6,7-dihydro-5H-cyclopenta[4,5]thieno[2,3-d]pyrimidin-5-yl)acetamide]	< 5

More lines, now with the values ahead:

IC50 [µM]	SMILES
< 5	NC(=O)CC[C@H]1CCCc2sc3ncnc(O[C@H]4CC[C@H](N)CC4)c3c21 [Compound I-153, 3-((R)-4-(((1r,4R)-4-aminocyclohexyl)oxy)-5,6,7,8-tetrahydrobenzo[4,5]thieno[2,3-d]pyrimidin-5-yl)propanamide]
< 5	CNC(=O)N1Cc2sc3ncnc(O[C@H]4CC[C@H](N5CCOCC5)CC4)c3c2C1 [Compound I-200, N-methyl-12-[[4-(morpholin-4-yl)cyclohexyl]oxy]-7-thia-4,9, 11-triazatricyclo[6.4.0.0[2,6]]dodeca-1(8),9, 11-triene-4-carboxamide]
< 5	CN(C)[C@H]1CC[C@H](Oc2ncnc3sc4c(c23)C[C@@H](CCO)CC4)CC1 [Compound I-111, 2-[(12S)-3-[[4-(dimethylamino)cyclohexyl]oxy]-8-thia-4,6-diazatricyclo[7.4.0.0[2,7]]trideca-1(9),2(7),3,5-tetraen-12-yl]ethan-1-ol formate]
< 5	CC[C@H](C[C@H]1CCc2sc3ncnc(N[C@H]4CC[C@H](N(C)C)CC4)c3c21)OC [Compound I-147, (1r,4R)-N1-((R)-5-((R)-2-methoxybutyl)-6,7-dihydro-5H-cyclopenta[4,5]thieno[2,3-d]pyrimidin-4-yl)-N4,N4-dimethylcyclohexane-1,4-diamine]
< 5	CN(C)[C@H]1CC[C@H](Oc2ncnc3sc4c(c23)[C@@H](C[C@H](O)c2cc[nH]n2)CC4)CC1 [Compound I-96, (S)-2-((R)-4-(((1r,4R)-4-(dimethylamino)cyclohexyl)oxy)-6,7-dihydro-5H-cyclopenta[4,5]thieno[2,3-d]pyrimidin-5-yl)-1-(1H-pyrazol-3-yl)ethanol]
